# Values quoted from earlier work as cited in patent publication US7132452B2, “Topical formulation having effects on alleviating pain/inflammation caused by herpes virus infection” (priority 2003, dated 2006).
row,solubility in water,SMILES
1,relatively low solubility in water,"O=C(O)Cc1ccccc1Nc1c(Cl)cccc1Cl [diclofenac, 2-(2,6-dichloro-anilino)-phenyl-acetic acid]"
2,very low solubility in water,"O=C(c1ccccc1)c1ccc2n1CCC2C(=O)O (racemic) [ketorolac, (±)-5-benzoyl-2,3-dihydro-1H-pyrrolizine-1-carboxylic acid]"

row,SMILES,solubility in water
1,O=C(c1ccccc1)c1ccc2n1CCC2C(=O)O (stereo not drawn) [ketorolac tromethamine],much more water soluble than the free acid form of ketorolac
